Assay results as given in patent US8785682B2, “Tetranor PGDM: a biomarker of PGD2 synthesis in vivo” (The Trustees of the University of Pennsylvania, priority 2007, dated 2014).
Read-outs that look alike come from different tables or passages of the source.

Key:
[1] = Infusion of exogenous PGD2 i.p. into mice, urinary PGD2 metabolites; format: in vivo, mouse
Description: (§1) Urine analysis: ^18O2-2,3-dinor-11β-PGF2α, and ^18O^2-11β-PGF2α were added to 1 milliliter (ml) of human urine or […] of mouse urine and were allowed to equilibrate for 15 minutes. […] The resulting residue was then reconstituted with 100 μl of 5% acetonitrile in water and was filtered by centrifugation.
(§2) The ESI source used nitrogen for both sheath and auxiliary gas and was set at 70 and 5 (arbitrary units), respectively. The mass spectrometer was operated in the negative ion mode with a capillary temperature of 350° C. and a spray voltage of 2.0 kV. […] The transitions for endogenous 2,3-dinor-11β-PGF2α and ^18O2-2,3-dinor-11β-PGF2α, were m/z 325→145 and m/z 329→145 with CE 13 eV, respectively. They were m/z […] and m/z 357→197 for 9α,11β-PGF2α and ^18O2-9α,11β-PGF2α with CE 24 eV.
Studies in mice: All studies were performed following protocol review and approval by the Institutional Animal Care and Use Committee (IAUCC) of the University of Pennsylvania. (i) Infusion studies: vehicle or PGD2 [20, 150 or 500 μg] was infused i.p. into twelve-week-old male C57/BL6 mice (n=5 per group). Urine was collected for 24 hours in metabolic cages for analysis of PGD2 metabolites. (ii) PGDS knockouts: Urine was collected for 24 hours from three- to four-month-old male wild type mice, L-PGDS knockout mice (kindly provided by Dr. Yoshihiro Urade, Osaka, Japan) and H-PGDS knockout mice (kindly provided by Dr. Yoshihide Kanaoka, Boston, Mass.), all on a C57/BL6 background (n=15 for WT and LPGDS knockouts and n=10 for H-PGDS knockouts).
(§3) Results are expressed as mean+/−SEM.

PGD2 levels = assay: Urinary tetranor PGDM in patients undergoing PTCA; format: in vivo, human; conditions: for Level of tetranor-PGDM, Post-PTCA, no aspirin / Level of tetranor-PGDM, Pre-PTCA, no aspirin / Level of tetranor-PGDM, During-PTCA, no aspirin: patient (n=1) on clopidogrel and no aspirin
Source text: PGD2 levels were studied in patients undergoing percutaneous transluminal coronary angioplasty (PTCA). PTCA is a common non-surgical treatment for opening obstructed coronary arteries. During PTCA, a balloon-tipped catheter is threaded from an artery in the groin to the trouble spot in the artery of the heart. The balloon is then inflated, thereby compressing the plaque and opening (dilating) the narrowed coronary artery so that blood flow is improved. In some instances, an expandable metal stent is also inserted; stents are wire mesh tubes used to counteract further constriction. The inclusion and exclusion criteria for participation in the PGD2 level assessment were as follows. Inclusion: • a. Males and females between the ages of 18-99. • b. […] Treated with any dose of aspirin (acetylsalicylic acid; ASA) daily for at least 5 days OR • 2. […] Treated with an alternative antiplatelet therapy, such as clopidogrel, due to an aspirin hypersensitivity or PMDs preference OR • 4. […] No aspirin therapy at all. • c. Patients presenting to the emergency room (ER) with Acute Coronary Syndrome (ACS) who will have a PTCA. • d. Patients with stable angina or positive stress tests scheduled for a cardiac catheterization. Exclusion: • a. History of unstable diabetes (Hgb A1c>8 or FBS>200). • b. Uncontrolled hypertension (SBP>180, DBP>100). • c. History of an acute confounding disease as judged on clinical screen that according to the investigator may interfere with interpretation of the study results, or compromise the safety of a potential subject. • d. […] Nineteen (19) subjects scheduled for elective PTCA and/or who presented to the emergency room with acute coronary syndrome and subsequently ordered a PTCA were screened according to the inclusion and exclusion criteria. […] Urine was collected from each subject at three times. […] Urine samples were kept at −80° C. The tetranor PDGM level in each sample was then determined by stable isotope dilution, tandem mass spectrometric quantification, following thawing of the sample. The tetranor PGDM level was normalized to the quantity in milligrams (mg) of urine creatinine.

biosynthesis of PGD2 [2] = assay: Aspirin single dose in healthy volunteers, urinary PGD2 metabolites; format: in vivo, human; conditions: mean±SEM
Description: as §1, §2
(§4) Clinical Studies: Four clinical studies were performed.
In a fourth study, a single dose of aspirin (325 mg) was administered to healthy volunteers (n=18; 9 males and 9 females). Urinary PGD2 metabolites were assessed at time 0 in spot urines and 0-4 hours in urine collected from 0-4 hrs after dosing.
as §3

[3] = Description: (§5) In a second study, niacin (dose was 400 mg or 600 mg) was administered to two healthy male volunteers. Urinary PGD2 metabolites were assessed in spot urines collected at the following time points before (time 0) and after (1, 2, 3, 4, 5, 6 hours) niacin administration.
biosynthesis of PGD2 [4] = system: biosynthesis of PGD2
Description: as §5

biosynthesis of PGD2 [5] = assay: Rofecoxib single dose in healthy volunteers, urinary PGD2 metabolites; format: in vivo, human; conditions: rofecoxib 25 mg single dose, 0 vs 4 hours
Description: as §1, §2, §4
In a third study, 18 healthy volunteers (9 male and 9 female) received, in random order, a single dose of placebo or rofecoxib (25 mg) under double-blind conditions, separated by washout periods of at least 2 weeks. Urinary PGD2 metabolites were assessed at 0 and 4 hours in spot urine samples that were collected 30 minutes after voiding.
as §3

[6] = mice, 20, 150 or 500 μg PGD2 i.p.
[7] = mice, maximal dose 500 ug PGD2 i.p., 24 h urine, mean±SEM
[8] = time 0, before aspirin 325 mg single dose
[9] = niacin 400 mg or 600 mg, spot urines 0-6 hours

## CCCCC[C@H](O)/C=C/[C@H]1C(=O)C[C@H](O)[C@@H]1C/C=C\CCCC(=O)O [PGD2, prostaglandin D2]
[1]; [6]
  fractional conversion of PGD2 to each metabolite: uninfluenced by dose
  response of all 3 urinary metabolites to PGD2 infusion: increased dose dependently
[1]; mice, i.p. infusion
  infused PGD2 excreted as the tetranor PGDM metabolite in mouse urine: 3-10%
[1]; [7]
  urinary 2,3-dinor-11β-PGF2α level attained after PGD2 infusion: 809±346 ng/mg creatinine
  urinary 11β-PGF2α level attained after PGD2 infusion: 207±67 ng/mg creatinine
  urinary tetranor PGDM level attained after PGD2 infusion: 2498±792 ng/mg creatinine

## CC(=O)Oc1ccccc1C(=O)O [aspirin, acetylsalicylic acid]
PGD2 levels; patients (n=3) on daily 81 mg aspirin, urine after procedure
  Level of tetranor-PGDM, Post-PTCA, 81 mg aspirin: 3.1 ng/mg creatinine
PGD2 levels; patients (n=3) on daily 81 mg aspirin, urine before procedure
  Level of tetranor-PGDM, Pre-PTCA, 81 mg aspirin: 2.6 ng/mg creatinine
PGD2 levels; patients (n=3) on daily 81 mg aspirin, urine during procedure
  Level of tetranor-PGDM, During-PTCA, 81 mg aspirin: 1.8 ng/mg creatinine
PGD2 levels; patients on daily 325 mg aspirin, urine after procedure
  Level of tetranor-PGDM, Post-PTCA, 325 mg aspirin: 3.1 ng/mg creatinine
PGD2 levels; patients on daily 325 mg aspirin, urine before procedure
  Level of tetranor-PGDM, Pre-PTCA, 325 mg aspirin: 2.9 ng/mg creatinine
PGD2 levels; patients on daily 325 mg aspirin, urine during procedure
  Level of tetranor-PGDM, During-PTCA, 325 mg aspirin: 2.8 ng/mg creatinine
Biosynthesis of PGD2 [2]; 0-4 hrs after aspirin 325 mg single dose, p<0.001
  urinary tetranor PGDM level following aspirin: 0.86±0.07 ng/mg creatinine
Biosynthesis of PGD2 [2]; 0-4 hrs after aspirin 325 mg single dose, p<0.01
  urinary 2,3-dinor-11β-PGF2α level following aspirin: 0.32±0.04 ng/mg creatinine
Biosynthesis of PGD2 [2]; [8]
  urinary 2,3-dinor-11β-PGF2α level before aspirin: 0.63±0.11 ng/mg creatinine
  urinary tetranor PGDM level before aspirin: 1.71±0.21 ng/mg creatinine

## COC(=O)[C@H](c1ccccc1Cl)N1CCc2sccc2C1 [clopidogrel]
PGD2 levels; urine after procedure
  Level of tetranor-PGDM, Post-PTCA, no aspirin: 13.1 ng/mg creatinine
PGD2 levels; urine before procedure
  Level of tetranor-PGDM, Pre-PTCA, no aspirin: 11.5 ng/mg creatinine
PGD2 levels; urine during procedure
  Level of tetranor-PGDM, During-PTCA, no aspirin: 26.3 ng/mg creatinine

## O=C(O)c1cccnc1 [niacin]
[3]; niacin 400 mg or 600 mg oral
  time after which flushing had dissipated: 2 to 3 h
[3]; niacin 400 mg or 600 mg, two volunteers, face and upper part of the body
  flushing after oral administration: intense flush
Biosynthesis of PGD2 [4]; 400 mg vs 600 mg
  relationship between metabolite excretion and the doses of niacin: not apparent
Biosynthesis of PGD2 [4]; niacin 400 mg or 600 mg
  time of fall of urinary metabolites to basal levels after dosing: 5 to 6 h
  time of peak of urinary tetranor PGDM and 2,3-dinor-11β-PGF2α after dosing: 2 to 3 h
Biosynthesis of PGD2 [4]; [9]
  effect on urinary 2,3-dinor-11β-PGF2α: elevated
  effect on urinary tetranor PGDM: elevated

## CS(=O)(=O)c1ccc(C2=C(c3ccccc3)C(=O)OC2)cc1 [rofecoxib]
Biosynthesis of PGD2 [5]
  effect on urinary 2,3-dinor-11β-PGF2α: failed to depress
  effect on urinary tetranor PGDM: failed to depress

## O=C(O)CCCCC(=O)CC[C@H]1C(=O)C[C@H](O)[C@@H]1CCC(=O)O [tetranor PGDM, 11,15-dioxo-9α-hydroxy-2,3,4,5-tetranor-prostan-1,20-dioic acid]
PGD2 levels; urine after procedure
  Level of tetranor-PGDM, Post-PTCA, no aspirin: 13.1 ng/mg creatinine
PGD2 levels; urine before procedure
  Level of tetranor-PGDM, Pre-PTCA, no aspirin: 11.5 ng/mg creatinine
PGD2 levels; urine during procedure
  Level of tetranor-PGDM, During-PTCA, no aspirin: 26.3 ng/mg creatinine
